In patent US12649750B2, “Macrocyclic compounds, compositions, and methods of using thereof” (Sionna Therapeutics Inc., priority 2022, dated 2026):

Columns and labels:
NBD1 = target: T1, NBD1 (Homo sapiens, UniProt P13569); test: Aggregation analysis using differential static light scattering (DSLS), thermal stability of NBD1 (ΔTagg); assay type: binding; details: ΔTagg versus DMSO control, NBD1 0.2 mg/ml
T1 construct: Purified recombinant NBD1 was produced using previously described methods; made in house
How it was run: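 Thermal aggregation of purified NBD1 was followed by static light scattering during a 1° C./min ramp to 70° C. Protein was at 0.2 mg/ml with 2 mM ATP at pH7.6. Each compound's Tagg was referenced to DMSO controls.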

CFTR = target: T2, CFTR (Homo sapiens, UniProt P13569, DEL508-508); test: TECC24 AUC fold over DMSO @10 μM, CFTR-mediated transepithelial chloride transport in CF-HBE cells; assay type: cell-based; details: test agent AUC divided by DMSO vehicle AUC, primary CF-HBE cells, ΔF508 homozygous donor, 48 hours incubation
T2 construct: Primary human bronchial epithelial cells from a ΔF508 homozygous CF donor; host or cells: primary human bronchial epithelial cells (CF-HBE), ΔF508 homozygous donor
How it was run: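 Value is ratio of test-agent to DMSO AUC of equivalent transepithelial Cl− current, integrated from forskolin (10 μM) stimulation to CFTR inhibitor-172 (20 μM) block, with benzamil 10 μM present. CF-HBE (ΔF508/ΔF508) cultures had 48 h compound exposure at 10 μM, 36.5° C before recording.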

T1 sequence (P13569 423-646 limits assumed): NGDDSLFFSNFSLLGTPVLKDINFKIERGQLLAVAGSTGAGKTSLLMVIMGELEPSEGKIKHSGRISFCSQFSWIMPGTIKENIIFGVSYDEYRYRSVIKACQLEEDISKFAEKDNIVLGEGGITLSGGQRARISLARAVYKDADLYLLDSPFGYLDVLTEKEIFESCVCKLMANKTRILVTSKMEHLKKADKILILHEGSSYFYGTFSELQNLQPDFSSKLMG
T2 sequence (P13569 with tags, fused parts or gaps DEL508-508): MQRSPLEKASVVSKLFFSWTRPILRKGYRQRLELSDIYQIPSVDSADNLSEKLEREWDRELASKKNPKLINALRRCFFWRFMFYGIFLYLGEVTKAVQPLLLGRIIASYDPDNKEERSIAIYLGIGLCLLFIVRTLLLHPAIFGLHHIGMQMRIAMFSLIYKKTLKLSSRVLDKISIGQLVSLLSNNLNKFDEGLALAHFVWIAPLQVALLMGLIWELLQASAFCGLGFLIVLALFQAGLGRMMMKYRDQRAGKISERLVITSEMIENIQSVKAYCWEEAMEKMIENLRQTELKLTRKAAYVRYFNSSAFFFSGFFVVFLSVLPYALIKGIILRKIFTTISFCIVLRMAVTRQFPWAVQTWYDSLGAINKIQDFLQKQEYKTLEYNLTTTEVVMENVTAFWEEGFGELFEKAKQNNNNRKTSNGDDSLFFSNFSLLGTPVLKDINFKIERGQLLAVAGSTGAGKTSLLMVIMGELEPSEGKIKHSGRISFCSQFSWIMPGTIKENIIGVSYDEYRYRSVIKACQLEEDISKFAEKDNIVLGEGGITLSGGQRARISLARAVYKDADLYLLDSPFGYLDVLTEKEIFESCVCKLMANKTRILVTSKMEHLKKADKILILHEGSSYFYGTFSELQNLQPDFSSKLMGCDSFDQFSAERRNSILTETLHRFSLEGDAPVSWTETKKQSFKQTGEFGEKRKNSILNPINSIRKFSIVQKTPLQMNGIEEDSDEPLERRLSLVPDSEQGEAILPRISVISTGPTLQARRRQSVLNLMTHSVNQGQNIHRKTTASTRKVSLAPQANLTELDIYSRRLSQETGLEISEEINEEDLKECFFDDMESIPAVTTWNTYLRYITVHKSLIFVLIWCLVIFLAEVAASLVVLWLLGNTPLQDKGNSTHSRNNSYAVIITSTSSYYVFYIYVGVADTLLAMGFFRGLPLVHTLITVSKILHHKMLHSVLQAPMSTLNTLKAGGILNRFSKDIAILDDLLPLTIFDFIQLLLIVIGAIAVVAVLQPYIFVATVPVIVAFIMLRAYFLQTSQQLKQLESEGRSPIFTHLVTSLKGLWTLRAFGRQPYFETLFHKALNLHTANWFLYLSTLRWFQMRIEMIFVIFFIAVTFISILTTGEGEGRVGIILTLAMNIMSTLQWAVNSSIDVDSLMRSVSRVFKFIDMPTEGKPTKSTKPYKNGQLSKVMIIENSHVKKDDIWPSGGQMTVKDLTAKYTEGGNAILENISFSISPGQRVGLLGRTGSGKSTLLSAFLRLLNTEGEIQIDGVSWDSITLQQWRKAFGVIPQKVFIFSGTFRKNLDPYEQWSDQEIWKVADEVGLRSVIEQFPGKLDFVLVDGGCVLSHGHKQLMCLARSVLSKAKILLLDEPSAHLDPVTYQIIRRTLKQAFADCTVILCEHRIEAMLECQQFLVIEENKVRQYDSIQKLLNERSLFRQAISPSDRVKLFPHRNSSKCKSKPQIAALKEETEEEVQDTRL

SMILES | DSLS 3D (100 μM ΔT) (NBD1) | TECC (AUC, 10 μM) (CFTR)
CC1CCC(C)(c2cccc(CCC(=O)O)c2)c2cnc([nH]2)-c2cc(ccc2F)Oc2c(F)cc3[nH]ccc3c2CCS(=O)(=O)CC1 (centres unmarked) [Compound 42, 3-[3-(22,28-Difluoro-6,9-dimethyl-12,12-dioxo-24-oxa-12lambda6-thia-3,19,30-triazapentacyclo[23.3.1.12,5.015,23.016,20]triaconta-1(29),2,4,15,17,20,22,25,27-nonaen-6-yl)phenyl]propanoic Acid] | C (a value greater than 10 °C and less than or equal to 25 °C is marked “C”) | B (a value between 12-20 is marked “B”)
CCONC(=O)[C@@H](C)Cc1cccc(C2(C)CCCC(C)(C)CS(=O)(=O)CCc3c(c(F)cc4[nH]ccc34)Oc3ccc(F)c(c3)-c3nc2nn3C)c1 (single isomer, unassigned) [Compound 188] | B (a value above 5 °C and less than or equal to 10 °C is marked “B”) | B (a value between 12-20 is marked “B”)
C[C@@H](Cc1cccc([C@@]2(C)CCCC(C)(C)CS(=O)(=O)CCc3c(c(F)cc4[nH]ccc34)C(O)c3ccnc(c3)-c3nc2nn3C)c1)C(=O)O (single isomer, unassigned) [Compound 255A] | B (a value above 5 °C and less than or equal to 10 °C is marked “B”) | A (a TECC value less than 12 is marked “A”)
Cn1nc2nc1-c1cc(ccn1)Oc1c(F)c(F)c3[nH]ccc3c1CCS(=O)(=O)CC(C)(C)CCC[C@]2(C)c1cccc(CC(=O)O)c1 [Compound 257, 2-[3-[(6R)-21,22-difluoro-3,6,10,10-tetramethyl-12,12-dioxo-24-oxa-12λ6-thia-3,4,19,28,30-pentazapentacyclo[23.3.1.12,5.015,23.016,20]triaconta-1(29),2(30),4,15,17,20,22,25,27-nonaen-6-yl]phenyl]acetic Acid] | C (a value greater than 10 °C and less than or equal to 25 °C is marked “C”) | B (a value between 12-20 is marked “B”)
[2H]C([2H])([2H])C1(c2cccc(C[C@H](C)C(=O)O)c2)CCCC2(COC2)CS(=O)(=O)CCc2c(c(F)cc3[nH]ccc23)Oc2ccc(F)c(c2)-c2nc1nn2C (single isomer, unassigned) [Compound 130A] | C (a value greater than 10 °C and less than or equal to 25 °C is marked “C”) | C (a value between 20 and 80 is marked “C”)
C[C@@H](Cc1cccc(C2(C)CCCC(C)(C)CS(=O)(=O)CCc3c(c(F)cc4[nH]ccc34)S(=O)(=O)c3ccc(F)c(c3)-c3nc2nn3C)n1)C(=O)O (single isomer, unassigned) [Compound 180B] | A (an ΔTagg value less than or equal to 5 °C is marked “A”) | A (a TECC value less than 12 is marked “A”)
C/C(=C\c1cc(F)cc(C2(C)CCCC(C)(C)CS(=O)(=O)CCc3c(c(F)c(F)c4[nH]ccc34)Oc3ccc(F)c(c3)-c3nc2nn3C)c1)C(=O)O (single isomer, unassigned) [Compound 17A, (E)-3-(3-fluoro-5-((Z)-26,46,47-trifluoro-11,9,9,13-tetramethyl-7,7-dioxido-11H,41H-3-oxa-7-thia-4(5,4)-indola-1(5,3)-triazola-2(1,3)-benzenacyclotridecaphane-13-yl)phenyl)-2-methylacrylic acid] | B (a value above 5 °C and less than or equal to 10 °C is marked “B”) | A (a TECC value less than 12 is marked “A”)
Cn1nc2nc1-c1cc(ccc1F)[S+]([O-])c1c(F)cc3[nH]ccc3c1CCS(=O)(=O)CC(C)(C)CCC[C@]2(C)c1cccc(CCS(C)(=O)=O)c1 (single isomer, unassigned) [Compound 220A] | A (an ΔTagg value less than or equal to 5 °C is marked “A”) | A (a TECC value less than 12 is marked “A”)
CC(O)Cn1nc2nc1-c1cc(ccc1F)Oc1c(F)cc3[nH]ccc3c1CCS(=O)(=O)CC(C)(C)CCC[C@]2(C)c1cccc(C[C@@H](C)C(=O)O)c1 (mixture of isomers) [Compound 219, (2R)-3-[3-[(6R)-22,28-Difluoro-3-(2-hydroxypropyl)-6,10,10-trimethyl-12,12-dioxo-24-oxa-12λ6-thia-3,4,19,30-tetrazapentacyclo[23.3.1.12,5.015,23.016,20]triaconta-1(29),2(30),4,15,17,20,22,25,27-nonaen-6-yl]phenyl]-2-methyl-propanoic acid] | C (a value greater than 10 °C and less than or equal to 25 °C is marked “C”) | C (a value between 20 and 80 is marked “C”)
CC(Cc1cccc(C2(C)CCCC(C)(C)CS(=O)(=O)CCc3c(c(F)cc4[nH]ccc34)S(=O)(=O)c3ccc(F)c(c3)-c3nc2nn3C)c1)C(=O)O (single isomer, unassigned) [Compound 34A, 3-[3-(22,28-difluoro-3,6,10,10-tetramethyl-12,12,24,24-tetraoxo-12lambda6,24lambda6-dithia-3,4,19,30-tetrazapentacyclo[23.3.1.12,5.015,23.016,20]triaconta-1(29),2(30),4,15,17,20,22,25,27-nonaen-6-yl)phenyl]-2-methyl-propanoic Acid] | C (a value greater than 10 °C and less than or equal to 25 °C is marked “C”) | C (a value between 20 and 80 is marked “C”)
CC1(C)CCCC(c2cccc(CCC(=O)O)c2)n2ccc(n2)-c2cc(ccc2F)Oc2c(F)cc3[nH]ccc3c2CCS(=O)(=O)C1 (single isomer, unassigned) [Compound 24B, 3-[3-[22,28-difluoro-10,10-dimethyl-12,12-dioxo-24-oxa-12lambda6-thia-5,19,30-triazapentacyclo[23.3.1.12,5.015,23.016,20]triaconta-1(29),2(30),3,15,17,20,22,25,27-nonaen-6-yl]phenyl]propanoic Acid] | C (a value greater than 10 °C and less than or equal to 25 °C is marked “C”) | A (a TECC value less than 12 is marked “A”)
Cn1nc2nc1-c1cc(ccc1F)Oc1c(F)cc3[nH]ccc3c1CCS(=O)(=O)CC(C)(C)CCCC2(C)c1cccc(CCCO)c1 (centres unmarked) [Compound 64, 3-[3-(22,28-Difluoro-3,6,10,10-tetramethyl-12,12-dioxo-24-oxa-12λ6-thia-3,4,19,30-tetrazapentacyclo[23.3.1.12,5.015,23.016,20]triaconta-1(29),2(30),4,15,17,20,22,25,27-nonaen-6-yl)phenyl]propan-1-ol] | C (a value greater than 10 °C and less than or equal to 25 °C is marked “C”) | B (a value between 12-20 is marked “B”)
Cn1nc2nc1-c1cc(ccn1)[S+]([O-])c1c(F)cc3[nH]ccc3c1CCS(=O)(=O)CC(C)(C)CCC[C@]2(C)c1cccc(CC2(C(=O)O)CC2)c1 (single isomer, unassigned) [Compound 271] | C (a value greater than 10 °C and less than or equal to 25 °C is marked “C”) | C (a value between 20 and 80 is marked “C”)
CC(Cc1cccc(C2(C)CCCC(C)(C)CS(=O)(=O)CCc3c(c(F)cc4[nH]ccc34)Sc3ccc(F)c(c3)-c3nc2nn3C)c1)C(=O)O (single isomer, unassigned) [Compound 33A, 3-[3-(22,28-difluoro-3,6,10,10-tetramethyl-12,12-dioxo-12lambda6,24-dithia-3,4,19,30-tetrazapentacyclo[23.3.1.12,5.015,23.016,20]triaconta-1(29),2(30),4,15,17,20,22,25,27-nonaen-6-yl)phenyl]-2-methyl-propanoic Acid] | C (a value greater than 10 °C and less than or equal to 25 °C is marked “C”) | C (a value between 20 and 80 is marked “C”)
C[C@@H](Cc1cccc(C2(C)CCCC(C)(C)CS(=O)(=O)CCc3c(c(F)cc4[nH]ccc34)Oc3ccc(F)c(c3)-c3nc2nn3C)c1)C(=O)NS(=O)(=O)C1CC1 (single isomer, unassigned) [Compound 150] | C (a value greater than 10 °C and less than or equal to 25 °C is marked “C”) | A (a TECC value less than 12 is marked “A”)
CC1(C)CCCC(C)(c2cccc(CC3(C(=O)O)CC3)c2)c2c[nH]c(n2)-c2cc(ccc2F)Oc2c(F)cc3[nH]ccc3c2CCS(=O)(=O)C1 (single isomer, unassigned) [Compound 171A, 1-[[3-(22,28-difluoro-6,10,10-trimethyl-12,12-dioxo-24-oxa-12λ6-thia-3,19,30-triazapentacyclo[23.3.1.12,5.015,23.016,20]triaconta-1(29),2(30),4,15,17,20,22,25,27-nonaen-6-yl)phenyl]methyl]cyclopropanecarboxylic Acid] | A (an ΔTagg value less than or equal to 5 °C is marked “A”) | A (a TECC value less than 12 is marked “A”)
